The text below walks through data of ChEMBL document CHEMBL2021871, “The effects of diketopiperazines from Callyspongia sp. on release of cytokines and chemokines in cultured J774A.1 macrophages” (2012).

Common to all, as to assay type: functional
Test [1] has as its system J774.A1. The test is described as follows: Induction of IL10 secretion in mouse J774A1 cells at 5 ug/mL after 48 hrs by ELISA relative to control. For orientation: An ELISA detects its analyte on a solid surface through an enzyme-linked reagent.
For test [2], the system named is J774.A1. As to the kind of experiment: Induction of IFN-gamma secretion in mouse J774A1 cells at 5 ug/mL after 48 hrs by ELISA relative to control.
The subject of test [3] is J774.A1. The test is described as follows: Induction of MCP-1 secretion in mouse J774A1 cells at 5 ug/mL after 48 hrs by ELISA relative to control.
Test [4] deals with J774.A1. As to the kind of experiment: Induction of TNF-alpha secretion in mouse J774A1 cells at 5 ug/mL after 48 hrs by ELISA relative to control.
Test [5] has as its system J774.A1. As to the kind of experiment: Reduction of TNF-alpha secretion in mouse J774A1 cells at 5 ug/mL after 48 hrs by ELISA relative to control. On the set-up: scale not given: the % may be the effect or the level left.

Molecules are shown by their SMILES. Active and inactive are the calls of the source. The calls are words filed in the database; no cut-off is given here.

For the compound `C[C@@H]1NC(=O)[C@@H]2CCCN2C1=O`, the “fold change (FC)” value was determined as 1.56 in the test with J774.A1 [1], 1.36 with J774.A1 [2] and 1.47 in the test with J774.A1 [3].

Take `O=C1NCC(=O)N2CCC[C@@H]12` [CYCLO(PROLYLGLYCYL)]: the entries for the “fold change (FC)” value with J774.A1 [1], in the test on J774.A1 [2] and in the test on J774.A1 [3] were 1.29, 3.5 and 1.86, respectively. In the test on J774.A1 [4], the result was inactive.

On to `CC(C)C[C@@H]1NC(=O)[C@H](Cc2ccc(O)cc2)NC1=O`, for which the outcome in the test on J774.A1 [1] and with J774.A1 [4] was inactive. Besides, the “fold change (FC)” value with J774.A1 [2] is 1.82; in the test with J774.A1 [3] it was 2.24. For the same compound, the Activity in the test on J774.A1 [5] is 88.3%.

Consider `O=C1N[C@@H](Cc2ccccc2)C(=O)N2CCC[C@@H]12`, for which the “fold change (FC)” value is 1.54 in the test with J774.A1 [1], 1.62 in the test on J774.A1 [2] and 2.05 with J774.A1 [3]. Moreover, the result in the test on J774.A1 [4] was inactive.

On to `C[C@@H]1NC(=O)[C@@H]2C[C@@H](O)CN2C1=O`, for which the “fold change (FC)” value is 1.65 in the test with J774.A1 [1], 4.49 with J774.A1 [2], 3.09 in the test with J774.A1 [3] and 1.12 with J774.A1 [4].
